Results reported in PMC11079024, “Identification of a family of species-selective complex I inhibitors as potential anthelmintics” (Nature Communications, 2024).
Where two headings read alike, the source gives them in different places.

Molecular target: C. elegans (N2) complex I (NADH:ubiquinone oxidoreductase) (Caenorhabditis elegans, UniProt P24887+Q93873+Q94360)
Assay: biochemical
Type: biochemical
How it was run: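 Mitochondria, 0.2 mg/mL protein, freeze-thawed three times, assayed in 25 mM KPi pH 7.5 with BSA, 80 μM NADH, 60 μM decylubiquinone, 160 μM DCIP, antimycin A and KCN. Rate from initial linear slope of A600 over 15 min. % of solvent control.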

C. elegans (N2) complex I (NADH:ubiquinone oxidoreductase), sequence (Q94360 17-199): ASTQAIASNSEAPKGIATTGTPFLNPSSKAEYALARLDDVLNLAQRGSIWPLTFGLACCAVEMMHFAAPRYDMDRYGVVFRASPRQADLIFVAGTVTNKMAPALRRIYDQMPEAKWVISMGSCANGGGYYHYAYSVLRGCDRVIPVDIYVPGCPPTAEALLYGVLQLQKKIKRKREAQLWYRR
C. elegans (N2) complex I (NADH:ubiquinone oxidoreductase), sequence (P24887 whole entry): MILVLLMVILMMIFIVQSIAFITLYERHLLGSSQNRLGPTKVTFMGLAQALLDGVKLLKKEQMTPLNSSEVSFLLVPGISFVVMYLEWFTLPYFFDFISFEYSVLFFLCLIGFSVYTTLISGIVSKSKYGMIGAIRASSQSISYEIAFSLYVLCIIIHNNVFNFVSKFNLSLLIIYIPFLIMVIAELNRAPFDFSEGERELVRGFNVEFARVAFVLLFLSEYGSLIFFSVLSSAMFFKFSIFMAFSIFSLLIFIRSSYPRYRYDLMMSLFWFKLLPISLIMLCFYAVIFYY
C. elegans (N2) complex I (NADH:ubiquinone oxidoreductase), sequence (Q93873 31-482): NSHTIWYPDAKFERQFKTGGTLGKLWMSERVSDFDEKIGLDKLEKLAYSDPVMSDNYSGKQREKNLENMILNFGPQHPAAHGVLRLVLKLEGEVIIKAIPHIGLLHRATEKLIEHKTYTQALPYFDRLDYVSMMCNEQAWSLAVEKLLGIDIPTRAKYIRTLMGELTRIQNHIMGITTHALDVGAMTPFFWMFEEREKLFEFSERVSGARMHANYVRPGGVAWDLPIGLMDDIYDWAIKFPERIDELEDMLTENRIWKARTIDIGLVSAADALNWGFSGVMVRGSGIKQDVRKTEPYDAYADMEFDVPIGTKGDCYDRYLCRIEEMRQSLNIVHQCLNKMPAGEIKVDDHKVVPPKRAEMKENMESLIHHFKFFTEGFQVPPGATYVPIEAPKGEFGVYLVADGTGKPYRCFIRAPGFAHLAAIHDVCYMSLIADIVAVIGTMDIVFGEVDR

SMILES: Cc1ccc(CSCc2nc3ccccc3[nH]2)cc1 [Compound 7121781]
- activity at 0.0001 µM (Dose 0.0001 µM, read-out: C. elegans mitochondrial complex I activity): 100%
- activity at 0.0005 µM (Dose 0.0005 µM, read-out: C. elegans mitochondrial complex I activity): 95.4%
- activity at 0.001 µM (Dose 0.001 µM, read-out: C. elegans mitochondrial complex I activity): 94.3%
- activity at 0.0025 µM (Dose 0.0025 µM, read-out: C. elegans mitochondrial complex I activity): 98%
- activity at 0.005 µM (Dose 0.005 µM, read-out: C. elegans mitochondrial complex I activity): 98.1%
- activity at 0.013 µM (Dose 0.013 µM, read-out: C. elegans mitochondrial complex I activity): 104%
- activity at 0.025 µM (Dose 0.025 µM, read-out: C. elegans mitochondrial complex I activity): 99.3%
- activity at 0.063 µM (Dose 0.063 µM, read-out: C. elegans mitochondrial complex I activity): 89.7%
- activity at 0.125 µM (Dose 0.125 µM, read-out: C. elegans mitochondrial complex I activity): 95.8%
- activity at 0.313 µM (Dose 0.313 µM, read-out: C. elegans mitochondrial complex I activity): 87.2%
- activity at 0.625 µM (Dose 0.625 µM, read-out: C. elegans mitochondrial complex I activity): 99.9%
- activity at 1.5 µM (Dose 1.5 µM, read-out: C. elegans mitochondrial complex I activity): 94%
- activity at 3 µM (Dose 3 µM, read-out: C. elegans mitochondrial complex I activity): 73.4%
- activity at 15 µM (Dose 15 µM, read-out: C. elegans mitochondrial complex I activity): 71.1%
- activity at 37.5 µM (Dose 37.5 µM, read-out: C. elegans mitochondrial complex I activity): 43.5%
- activity at 75 µM (Dose 75 µM, read-out: C. elegans mitochondrial complex I activity): 23.3%
- IC50 (in vitro complex I dose response on C. elegans mitochondria, average of at least two biological replicates, fit in R (DRC), read-out: IC50 C. elegans complex I): 28.5 µM
- Log IC50 C. elegans complex I (log10 of IC50 in µM, C. elegans mitochondria): 1.46 µM
- IC50 (wild-type C. elegans mitochondria, read-out: C. elegans Complex I IC50): 28.5 µM
